Measured values as given in publication PMC7432809, “Antimicrobial Activity of Small Synthetic Peptides Based on the Marine Peptide Turgencin A: Prediction of Antimicrobial Peptide Sequences in a Natural Peptide and Strategy for Optimization of Potency” (International Journal of Molecular Sciences, 2020).
Where a SMILES comes first, the peptide text is derived from it. Bridges are numbered along the chain shown (N, C = ends).

Assays:
[1] = system: Bacillus megaterium; test: microbe, parasite or virus in culture; format: cell-based; details: Bacillus megaterium; MH medium, 24 h at 35 °C, OD 595 nm <10% of growth control; triplicates
Description: (§1) The synthesized peptides were screened for antibacterial activity against five strains of G+ bacteria: B. subtilis (Bs, ATCC 23857), C. glutamicum (Cg, ATCC 13032), S. aureus (Sa, ATCC 9144), Micrococcus luteus (Ml), B. megaterium (Bm) (the last two were obtained from professor Olaf B. Styrvold, UiT The Arctic University of Norway).
(§2) Two strains of G- bacteria, P. aeruginosa (Pa, ATCC 27853) and E. coli (Ec, ATCC 25922), were also used. Cultures stored at -80 °C in glycerol were transferred to Müller–Hinton plates (MH, Difco Laboratories, Detroit, MI, USA) and incubated for 24 h at 35 °C. Colonies of each strain were transferred to 5 mL liquid MH medium and left shaking (600 rpm) at room temperature overnight. An aliquot of actively growing bacteria (20 µL) was inoculated in 5 mL MH medium and left shaking for 2 h at room temperature. In order to have a sensitive bioassay, the bacterial cultures were diluted with medium to only 2.5–3 × 10^4 bacteria/mL and an aliquot of 50 µL was added to each well in 96 microwell plates (Thermo Fisher Scientific, Roskilde, Denmark) preloaded with peptide solution (50 µL). The antibacterial assays were performed as previously described. The microtiter plates were incubated for 24 h at 35 °C with optical density (595 nm) recorded every hour using an Envision 2103 multilabel reader, controlled by a Wallac Envision manager (PerkinElmer, Waltham, MA, USA). The minimum inhibitory concentration (MIC) was defined as the sample concentration showing an optical density less than 10% of the negative (growth) control, consisting of bacteria and MQ-H2O. Oxytetracycline (concentrations ranging from 20–0.02 µg/mL, Sigma-Aldrich) and indolicidin (concentration ranging from 200–0.2 µg/mL, Sigma-Aldrich) served as a positive (inhibition) control. The synthetic peptides were tested for antibacterial activity in concentrations ranging from 250 to 0.5 µg/mL in two-fold dilutions. All tests were performed in triplicates.

[2] = system: Micrococcus luteus; test: microbe, parasite or virus in culture; format: cell-based; details: Micrococcus luteus; MH medium, 24 h at 35 °C, OD 595 nm <10% of growth control; triplicates
Description: as §1, §2

[3] = system: Aureobasidium pullulans; test: microbe, parasite or virus in culture; format: cell-based; details: potato dextrose broth with 2% glucose, room temperature 48 h, OD 600 nm, >90% inhibition; triplicate
Description: (§3) StAMP-1–11 were screened for antifungal activity against C. albicans (Ca, ATCC 10231), A. pullulans (Ap) and Rhodotorula sp. (Rh) (the last two were obtained from professor Arne Tronsmo, The Norwegian University of Life Sciences, Ås, Norway). The antifungal assay was performed as previously described with a few modifications. Briefly, fungal spores were dissolved in potato dextrose broth (Difco Laboratories) with 2% D(+)-glucose (Merck, Darmstadt, Germany) to a concentration of 4 × 10^5 spores/mL. The spores (50 µL) were inoculated on 96 microwell plates (Thermo Fisher Scientific) containing the synthetic peptides (50 µL) and controls (water or antibiotic). The peptides were diluted in MQ-H2O at final concentrations ranging from 250–3.9 µg/mL in two-fold serial dilutions. Triclosan (Sigma-Aldrich, Steinheim, Germany) was used as a positive (antifungal) control (32–0.25 µg/mL), and MQ-H2O as a negative (growth) control. Cultures were grown in room temperature for 24 h (Ca) and 48 h (Ap and Rh). Growth inhibition was determined by measuring OD values at 600 nm by a microplate reader (Synergy H1 Hybrid Multi-Mode Reader, BioTek, Winooski, VT, USA). […] All experiments were done in triplicate.

[4] = system: Candida albicans (ATCC 10231); test: microbe, parasite or virus in culture; format: cell-based; details: potato dextrose broth with 2% glucose, room temperature 24 h, OD 600 nm, >90% inhibition; triplicate
Description: as §3

[5] = system: Rhodotorula sp.; test: microbe, parasite or virus in culture; format: cell-based; details: potato dextrose broth with 2% glucose, room temperature 48 h, OD 600 nm, >90% inhibition; triplicate
Description: as §3

[6] = system: Bacillus subtilis (ATCC 23857); details: turgencin A data ref Hansen et al. [24]; cited from earlier work
From the text: Table 3 Antimicrobial activities of turgencin A and the synthesized StAMP-1–11 peptides. | column: Gram-Pos / Bs

[7] = system: Corynebacterium glutamicum (ATCC 13032); details: turgencin A data ref Hansen et al. [24]; cited from earlier work
From the text: Table 3 Antimicrobial activities of turgencin A and the synthesized StAMP-1–11 peptides. | column: Gram-Pos / Cg

[8] = system: Staphylococcus aureus (ATCC 9144); details: turgencin A data ref Hansen et al. [24]; cited from earlier work
From the text: Table 3 Antimicrobial activities of turgencin A and the synthesized StAMP-1–11 peptides. | column: Gram-Pos / Sa

[9] = system: Escherichia coli (ATCC 25922); details: turgencin A data ref Hansen et al. [24]; cited from earlier work
From the text: Table 3 Antimicrobial activities of turgencin A and the synthesized StAMP-1–11 peptides. | column: Gram-Neg / Ec

[10] = system: Pseudomonas aeruginosa (ATCC 27853); details: turgencin A data ref Hansen et al. [24]; cited from earlier work
From the text: Table 3 Antimicrobial activities of turgencin A and the synthesized StAMP-1–11 peptides. | column: Gram-Neg / Pa

CSCC[C@@H]1NC(=O)[C@H](CCCCN)NC(=O)[C@@H](NC(=O)[C@H](C)NC(=O)[C@H](C)NC(=O)[C@H](CCCCN)NC(=O)[C@@H](NC(=O)[C@H](CCCCN)NC(=O)[C@@H]2CCCN2C(=O)CN)[C@@H](C)O)CSSC[C@@H](C(=O)N[C@@H](CC(=O)O)C(=O)N[C@@H](C)C(=O)N[C@H](C(N)=O)C(C)C)NC(=O)CNC(=O)[C@H](CC(C)C)NC(=O)[C@H](CCC(=O)O)NC(=O)[C@@H]2CSSC[C@H](NC(=O)[C@H](C)NC1=O)C(=O)N[C@@H](CCCCN)C(=O)N[C@@H](CC(C)C)C(=O)N[C@@H](C)C(=O)N[C@@H]([C@@H](C)O)C(=O)N[C@H]1CSSC[C@H](NC(=O)[C@H](CCCCN)NC(=O)[C@H](Cc3c[nH]c4ccccc34)NC(=O)CNC(=O)CNC(=O)[C@@H]3CCCN3C(=O)[C@H](CCCCN)NC(=O)[C@H](CCCCN)NC(=O)CNC1=O)C(=O)N[C@@H](CCCCN)C(=O)N[C@@H](CC(C)C)C(=O)N2 [Turgencin A] (H-GPKTKAACKMACKLATCGKKPGGWKCKLCELGCDAV-NH2; disulfide 8-33, 12-29, 17-26; N-terminus assumed)
Antimicrobial Activity (MIC) Bm [1]: 0.5 µg/mL | Antimicrobial Activity (MIC) Ml [2]: 8.0 µg/mL | Antimicrobial Activity (MIC) Ap [3]: 92.6 µg/mL | Antimicrobial Activity (MIC) Ca [4]: 46.3 µg/mL | Antimicrobial Activity (MIC) Rh [5]: 23.2 µg/mL | Antimicrobial Activity (MIC) Bs [6]: 1.5 µg/mL | Antimicrobial Activity (MIC) Cg [7]: 1.5 µg/mL | Antimicrobial Activity (MIC) Sa [8]: 23.3 µg/mL | Antimicrobial Activity (MIC) Ec [9]: 3.0 µg/mL | Antimicrobial Activity (MIC) Pa [10]: 5.9 µg/mL
